Source: US9434743B2, “Indazole derivatives” (TAKEDA PHARMACEUTICAL COMPANY LIMITED, priority 2012, dated 2016)

How the values were obtained:
[1] = molecular target: T1, human MetAP2 enzyme (Homo sapiens, UniProt P50579); experiment: MetAP2 enzyme assay, enzyme complexed with cobalt ions; conditions: MetAP2 Co pIC50, MetAP2 enzyme complexed with cobalt ions; Met-AMC substrate at Km
[2] = molecular target: T1, human MetAP2 enzyme; experiment: MetAP2 enzyme assay, enzyme complexed with manganese ions; conditions: MetAP2 Mn pIC50, MetAP2 enzyme complexed with manganese ions; Met-AMC substrate at Km
Procedure: DNA encoding the full-length sequence of human MetAP2 enzyme is amplified by PCR and cloned into a pFastBac expression vector (Invitrogen). Recombinant baculovirus incorporating the MetAP2 construct is generated by transposition using the Bac-to-Bac system (Invitrogen). The expression of recombinant protein is carried out by infection of Spodoptera frugiperda Sf9 cells (Invitrogen) in 5 L Wave Bioreactors (Wave Biotech). Recombinant protein is isolated from cellular extracts by binding to an SP Hitrap Fast Flow or SP Sepharose (Sigma) column, and the protein is eluted using a NaCl gradient. Partially purified extracts of MetAP2 are further purified by an AKTA FPLC over a Superdex-200 column (GE). The purity of MetAP2 protein is determined on denaturing SDS-PAGE gel.
The results for each well are expressed as percent inhibition and calculated using the equation:

T1 sequence (P50579 whole entry): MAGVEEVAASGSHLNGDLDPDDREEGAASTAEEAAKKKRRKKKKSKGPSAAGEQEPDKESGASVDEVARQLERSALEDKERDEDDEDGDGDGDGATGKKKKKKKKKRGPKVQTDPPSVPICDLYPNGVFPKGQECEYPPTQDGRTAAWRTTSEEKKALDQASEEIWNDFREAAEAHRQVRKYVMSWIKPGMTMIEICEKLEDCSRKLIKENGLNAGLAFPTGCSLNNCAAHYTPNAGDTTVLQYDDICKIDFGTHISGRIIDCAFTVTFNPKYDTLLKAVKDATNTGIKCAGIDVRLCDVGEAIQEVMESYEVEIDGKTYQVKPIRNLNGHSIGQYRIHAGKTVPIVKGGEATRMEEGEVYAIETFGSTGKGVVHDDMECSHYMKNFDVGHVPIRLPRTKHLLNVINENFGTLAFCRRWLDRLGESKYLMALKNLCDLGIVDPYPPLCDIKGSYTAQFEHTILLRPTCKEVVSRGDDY

Row | SMILES | IC50 [1] [nM] | IC50 [2] [nM]
1 | NC(=O)c1ccc2ncc(-c3cc(C(F)(F)F)cc4[nH]ncc34)n2n1 [Example 276, 3-(6-(trifluoromethyl)-1H-indazol-4-yl)imidazo[1,2-b]pyridazine-6-carboxamide] | 398 | 39.8
2 | Cc1cnc(-c2cc(C(F)(F)F)cc3[nH]ncc23)n1C [Example 162, 4-(1,5-dimethyl-1H-imidazol-2-yl)-6-(trifluoromethyl)-1H-indazole] | 316 | 6.31
3 | CNc1ncc(-c2cc(C(F)(F)F)cc3[nH]ncc23)cn1 [Example 196, N-methyl-5-(6-(trifluoromethyl)-1H-indazol-4-yl)pyrimidin-2-amine] | 63.1 | 6.31
4 | Cc1nn(C[C@@H]2CCC(=O)N2)c(C)c1-c1cc(C(F)(F)F)cc2[nH]ncc12 [Example 364, (5S)-5-((3,5-dimethyl-4-(6-(trifluoromethyl)-1H-indazol-4-yl)-1H-pyrazol-1-yl)methyl)pyrrolidin-2-one] | 79.4 | 20
5 | Cc1cc(S(=O)(=O)N(C)C)ccc1-c1cc(C(F)(F)F)cc2[nH]ncc12 [Example 125, N,N,3-trimethyl-4-(6-(trifluoromethyl)-1H-indazol-4-yl)benzenesulfonamide] | 158 | 31.6
6 | FC(F)(F)c1cc(-c2csc(N3CCOCC3)n2)c2cn[nH]c2c1 [Example 60, 4-(4-(6-(trifluoromethyl)-1H-indazol-4-yl)thiazol-2-yl)morpholine] | 1000 | 50.1
7 | FC(F)(F)c1cc(-c2cccc(-c3cc[nH]n3)c2)c2cn[nH]c2c1 [Example 61, 4-(3-(1H-pyrazol-3-yl)phenyl)-6-(trifluoromethyl)-1H-indazole] | 158 | 39.8
8 | N#Cc1ccc2ncc(-c3cc(C(F)(F)F)cc4[nH]ncc34)n2c1 [Example 153, 3-(6-(trifluoromethyl)-1H-indazol-4-yl)imidazo[1,2-a]pyridine-6-carbonitrile] | 200 | 25.1
9 | Cn1cc(-c2cc(C(F)(F)F)cc3[nH]ncc23)c(N)n1 [Example 144, 1-methyl-4-(6-(trifluoromethyl)-1H-indazol-4-yl)-1H-pyrazol-3-amine] | 200 | 20
10 | CN(C)C(=O)c1cc(-c2cc(C(F)(F)F)cc3[nH]ncc23)c(=O)n(C)c1 [Example 353, N,N,1-trimethyl-6-oxo-5-(6-(trifluoromethyl)-1H-indazol-4-yl)-1,6-dihydropyridine-3-carboxamide] | 794 | 15.8
11 | Cc1cc(=O)n(C)cc1-c1cc(C(F)(F)F)cc2[nH]ncc12 [Example 403, 1,4-dimethyl-5-(6-(trifluoromethyl)-1H-indazol-4-yl)pyridin-2(1H)-one] | 63.1 | 10
12 | C[C@H](CO)Nc1ncc(-c2cc(C(F)(F)F)cc3[nH]ncc23)cn1 [Example 206, (R)-2-(5-(6-(trifluoromethyl)-1H-indazol-4-yl)pyrimidin-2-ylamino)propan-1-ol] | 79.4 | 7.94
13 | CN1CCN(C(=O)c2cc(-c3cc(C(F)(F)F)cc4[nH]ncc34)ccn2)CC1 [Example 284, (4-methylpiperazin-1-yl)(4-(6-(trifluoromethyl)-1H-indazol-4-yl)pyridin-2-yl)methanone] | 79.4 | 7.94
14 | NC(=O)c1cc(-c2cc(C(F)(F)F)cc3[nH]ncc23)ccc1Cl [Example 63, 2-chloro-5-(6-(trifluoromethyl)-1H-indazol-4-yl)benzamide] | 63.1 | 15.8
15 | O=S(=O)(CCO)c1ccccc1-c1cc(C(F)(F)F)cc2[nH]ncc12 [Example 182, 2-(2-(6-(trifluoromethyl)-1H-indazol-4-yl)phenylsulfonyl)ethanol] | 794 | 25.1
16 | CN(C)S(=O)(=O)c1cccc(-c2cc(C(F)(F)F)cc3[nH]ncc23)c1 [Example 108, N,N-dimethyl-3-(6-(trifluoromethyl)-1H-indazol-4-yl)benzenesulfonamide] | 79.4 | 12.6
17 | O=C(c1ncc(-c2cc(C(F)(F)F)cc3[nH]ncc23)cn1)N1CCOCC1 [Example 294, morpholino(5-(6-(trifluoromethyl)-1H-indazol-4-yl)pyrimidin-2-yl)methanone] | 1580 | 31.6
18 | COc1ncc(-c2cc(C(F)(F)F)cc3[nH]ncc23)cc1C(=O)NCCO [Example 229, N-(2-hydroxyethyl)-2-methoxy-5-(6-(trifluoromethyl)-1H-indazol-4-yl)nicotinamide] | 63.1 | 6.31
19 | Cn1cc(-c2cc(C(F)(F)F)cc3[nH]ncc23)c(=O)n(Cc2ccc(F)cc2)c1=O [Example 311, 3-(4-fluorobenzyl)-1-methyl-5-(6-(trifluoromethyl)-1H-indazol-4-yl)pyrimidine-2,4(1H,3H)-dione] | 1000 | 63.1
20 | Fc1cnc2[nH]ccc2c1-c1cc(C(F)(F)F)cc2[nH]ncc12 [Example 66, 4-(5-fluoro-1H-pyrrolo[2,3-b]pyridin-4-yl)-6-(trifluoromethyl)-1H-indazole] | 79.4 | 15.8
21 | NS(=O)(=O)c1cc(F)c(-c2cc(C(F)(F)F)cc3[nH]ncc23)cc1F [Example 376, 2,5-difluoro-4-(6-(trifluoromethyl)-1H-indazol-4-yl)benzenesulfonamide] | 50.1 | 5.01
22 | Cc1nn(C)c(C(N)=O)c1-c1cc(C(F)(F)F)cc2[nH]ncc12 [Example 327, 1,3-dimethyl-4-(6-(trifluoromethyl)-1H-indazol-4-yl)-1H-pyrazole-5-carboxamide] | 631 | 63.1
23 | Nc1nc(Cl)ncc1-c1cc(C(F)(F)F)cc2[nH]ncc12 [Example 191, 2-chloro-5-(6-(trifluoromethyl)-1H-indazol-4-yl)pyrimidin-4-amine] | 794 | 25.1
24 | FC(F)(F)c1cc(-c2ccc(-c3ccn[nH]3)cc2)c2cn[nH]c2c1 [Example 62, 4-(4-(1H-pyrazol-5-yl)phenyl)-6-(trifluoromethyl)-1H-indazole] | 100 | 12.6

The remaining lines, values ahead:

Row | IC50 [1] [nM] | IC50 [2] [nM] | SMILES
25 | 12.6 | 7.94 | Cc1nc(N2CCN(C)CC2)ccc1-c1cc(C(F)(F)F)cc2[nH]ncc12 [Example 400, 4-(2-methyl-6-(4-methylpiperazin-1-yl)pyridin-3-yl)-6-(trifluoromethyl)-1H-indazole]
26 | 10 | 3.98 | O=C1Cc2c(cccc2-c2cc(C(F)(F)F)cc3[nH]ncc23)N1 [Example 129, 4-(6-(trifluoromethyl)-1H-indazol-4-yl)indolin-2-one]
27 | 50.1 | 3.98 | Nc1ncc(-c2cc(C(F)(F)F)cc3[nH]ncc23)cn1 [Example 9, 5-(6-(trifluoromethyl)-1H-indazol-4-yl)pyrimidin-2-amine]
28 | 50.1 | 10 | N#CCOc1ccccc1-c1cc(C(F)(F)F)cc2[nH]ncc12 [Example 93, 2-(2-(6-(trifluoromethyl)-1H-indazol-4-yl)phenoxy)acetonitrile]
29 | 39.8 | 7.94 | FC(F)(F)c1cc(-c2cnc(N3CCCC3)nc2)c2cn[nH]c2c1 [Example 116, 4-(2-(pyrrolidin-1-yl)pyrimidin-5-yl)-6-(trifluoromethyl)-1H-indazole]
30 | 39.8 | 12.6 | CS(=O)(=O)Nc1ccc(-c2cc(C(F)(F)F)cc3[nH]ncc23)cc1 [Example 56, N-(4-(6-(trifluoromethyl)-1H-indazol-4-yl)phenyl)methanesulfonamide]
31 | 25.1 | 6.31 | Cc1ccc(-c2cc(C(F)(F)F)cc3[nH]ncc23)c(N)n1 [Example 211, 6-methyl-3-(6-(trifluoromethyl)-1H-indazol-4-yl)pyridin-2-amine]
32 | 15.8 | 3.16 | COc1ccc(OC)c(-c2cc(C(F)(F)F)cc3[nH]ncc23)c1 [Example 86, 4-(2,5-dimethoxyphenyl)-6-(trifluoromethyl)-1H-indazole]
33 | 31.6 | 5.01 | COc1nc(C(=O)NCCO)ccc1-c1cc(C(F)(F)F)cc2[nH]ncc12 [Example 394, N-(2-hydroxyethyl)-6-methoxy-5-(6-(trifluoromethyl)-1H-indazol-4-yl)picolinamide]
34 | 50.1 | 3.98 | Cc1[nH]c(=O)ccc1-c1cc(C(F)(F)F)cc2[nH]ncc12 [Example 389, 6-methyl-5-(6-(trifluoromethyl)-1H-indazol-4-yl)pyridin-2(1H)-one]
35 | 20 | 3.16 | CS(=O)(=O)NCc1ccc(-c2cc(C(F)(F)F)cc3[nH]ncc23)cc1 [Example 95, N-(4-(6-(trifluoromethyl)-1H-indazol-4-yl)benzyl)methanesulfonamide]
36 | 50.1 | 5.01 | COCc1ccc(-c2cc(C(F)(F)F)cc3[nH]ncc23)cc1 [Example 48, 4-(4-(methoxymethyl)phenyl)-6-(trifluoromethyl)-1H-indazole]
37 | 7.94 | 1.58 | O=C(NCCO)c1ccc(-c2cc(C(F)(F)F)cc3[nH]ncc23)cc1 [Example 130, N-(2-hydroxyethyl)-4-(6-(trifluoromethyl)-1H-indazol-4-yl)benzamide]
38 | 31.6 | 10 | Cn1cnc2ccc(-c3cc(C(F)(F)F)cc4[nH]ncc34)cc21 [Example 64, 4-(1-methyl-1H-benzo[d]imidazol-6-yl)-6-(trifluoromethyl)-1H-indazole]
39 | 39.8 | 15.8 | NS(=O)(=O)c1cccc(-c2cc(C(F)(F)F)cc3[nH]ncc23)c1 [Example 329, 3-(6-(trifluoromethyl)-1H-indazol-4-yl)benzenesulfonamide]
40 | 12.6 | 5.01 | O=C1NCc2c1cccc2-c1cc(C(F)(F)F)cc2[nH]ncc12 [Example 141, 4-(6-(trifluoromethyl)-1H-indazol-4-yl)isoindolin-1-one]
